According to patent publication US10544150B2, “NK-3 receptor selective antagonist compounds, pharmaceutical composition and methods for use in NK-3 receptors mediated disorders” (Ogeda SA, priority 2010, dated 2020):
pKi: −log10 of the molar value.

Target: human NK-3 receptor (Homo sapiens (Human), UniProt P29371)
Experiment: 3H-SB222200 binding competition assay with human NK-3 receptor
Settings: 3H-SB222200 displacement, CHO cell membranes expressing human NK3 receptor; read-out: Ki range
Method: The affinity of compounds of the invention for the tachykinin receptors was determined by measuring the ability of the compounds of the invention to displace a radiolabeled ligand from its specifics binding site.
^3H-SB222200 Binding Competition Assay with Human NK-3 Receptor
The ability of the compounds of the invention to inhibit the binding of the NK-3 receptor selective antagonist SB222200 was assessed by an in vitro radioligand binding assay. Membranes were prepared from Chinese hamster ovary recombinant cells which express the human NK3 receptor. The membranes were incubated with 5 nM ^3H-SB222200_(ARC) in a HEPES 25 mM/NaCl 0.1M/CaCl2 1 mM/MgCl2 5 Mm/BSA 0.5%/Saponin 10 μg/ml buffer at pH 7.4 and various concentrations of the compounds of the invention. The amount of tritiated SB222200 bound to the receptor was determined after filtration by the quantification of membrane associated radioactivity using the TopCount-NXT reader (Packard). […] In Table 3 biological results obtained using the ^3H-SB222200 binding competition assay with compounds of the invention are set out in tabulated form. In this table the calculated Ki is given. The Ki value obtained (in accordance with the protocol set forth above) is represented as follows: “+++” means Ki<500 nM; “++” means 500 nM≤Ki≤1 μM; “+” means 1 μM<Ki≤5 μM; “#” means Ki>5 μM.

human NK-3 receptor, sequence (P29371 whole entry): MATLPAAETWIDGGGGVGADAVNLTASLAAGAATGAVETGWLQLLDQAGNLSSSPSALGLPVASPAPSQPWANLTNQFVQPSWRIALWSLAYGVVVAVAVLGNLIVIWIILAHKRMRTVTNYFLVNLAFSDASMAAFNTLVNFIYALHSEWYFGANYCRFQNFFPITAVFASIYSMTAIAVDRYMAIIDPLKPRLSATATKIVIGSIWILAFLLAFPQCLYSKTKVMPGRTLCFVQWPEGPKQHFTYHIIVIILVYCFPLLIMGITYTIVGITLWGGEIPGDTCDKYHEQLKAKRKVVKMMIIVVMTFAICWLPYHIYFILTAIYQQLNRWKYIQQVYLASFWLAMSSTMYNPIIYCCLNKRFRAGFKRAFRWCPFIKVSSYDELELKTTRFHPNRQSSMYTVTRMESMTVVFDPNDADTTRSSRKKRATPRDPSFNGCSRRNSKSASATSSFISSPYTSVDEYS

| Structure (SMILES) | pKi |
| --- | --- |
| O=C(c1ccc(F)cc1)N1CCn2c(nnc2-c2cccc(C(F)(F)F)n2)C1 [Compound 39, (4-fluorophenyl)(3-(6-(trifluoromethyl)pyridin-2-yl)-5,6-dihydro-[1,2,4]triazolo[4,3-a]pyrazin-7(8H)-yl)methanone] | 6.00 to 6.30 |
| COc1ccc(-c2nc(-c3nnc4n3CCN(C(=O)c3ccc(F)cc3)C4)cs2)cc1OC [Compound 40, (3-(2-(3,4-dimethoxyphenyl)thiazol-4-yl)-5,6-dihydro-[1,2,4]triazolo[4,3-a]pyrazin-7(8H)-yl)(4-fluorophenyl)methanone] | > 6.30 |
| O=C(c1ccc(F)cc1)N1CCn2c(-c3csc(-c4ccccc4)n3)nnc2C1c1ccc(F)cc1 (stereo not drawn) [Compound 41, (4-fluorophenyl)(8-(4-fluorophenyl)-3-(2-phenylthiazol-4-yl)-5,6-dihydro-[1,2,4]triazolo[4,3-a]pyrazin-7(8H)-yl)methanone] | > 6.30 |
| CC(C)C1c2nnc(-c3csc(-c4ccccc4)n3)n2CCN1C(=O)c1ccc(F)cc1 (stereo not drawn) [Compound 43, (4-fluorophenyl)(8-isopropyl-3-(2-phenylthiazol-4-yl)-5,6-dihydro-[1,2,4]triazolo[4,3-a]pyrazin-7(8H)-yl)methanone] | 5.30 to 6.00 |
| C[C@@H]1c2nnc(-c3ccccn3)n2CCN1C(=O)c1ccc(F)cc1 [Compound 44, (R)-(4-fluorophenyl)(8-methyl-3-(pyridin-2-yl)-5,6-dihydro-[1,2,4]triazolo[4,3-a]pyrazin-7(8H)-yl)methanone] | 5.30 to 6.00 |
| C[C@@H]1c2nnc(-c3csc(-c4ccccc4)n3)n2CCN1C(=O)c1ccc(F)cc1 [Compound 45, (R)-(4-fluorophenyl)(8-methyl-3-(2-phenylthiazol-4-yl)-5,6-dihydro-[1,2,4]triazolo[4,3-a]pyrazin-7(8H)-yl)methanone] | > 6.30 |
| CC1c2nnc(-c3csc(N4CCOCC4)n3)n2CCN1C(=O)c1ccc(-c2ccccc2)cc1 (stereo not drawn) [Compound 46, [1,1′-biphenyl]-4-yl(8-methyl-3-(2-morpholinothiazol-4-yl)-5,6-dihydro-[1,2,4]triazolo[4,3-a]pyrazin-7(8H)-yl)methanone] | > 6.30 |
| CC1c2nnc(-c3coc(-c4ccccc4)n3)n2CCN1C(=O)c1ccc(F)cc1 (stereo not drawn) [Compound 48, (4-fluorophenyl)(8-methyl-3-(2-phenyloxazol-4-yl)-5,6-dihydro-[1,2,4]triazolo[4,3-a]pyrazin-7(8H)-yl)methanone] | > 6.30 |
| CC1c2nnc(-c3coc(-c4ccccc4)n3)n2CCN1C(=O)c1ccc(-c2ccccc2)cc1 (stereo not drawn) [Compound 49, [1,1′-biphenyl]-4-yl(8-methyl-3-(2-phenyloxazol-4-yl)-5,6-dihydro-[1,2,4]triazolo[4,3-a]pyrazin-7(8H)-yl)methanone] | > 6.30 |
| O=C(c1ccc(F)cc1)N1CCn2c(-c3csc(-c4ccccc4)n3)nnc2C1CCO (stereo not drawn) [Compound 51, (4-fluorophenyl)(8-(2-hydroxyethyl)-3-(2-phenylthiazol-4-yl)-5,6-dihydro-[1,2,4]triazolo[4,3-a]pyrazin-7(8H)-yl)methanone] | > 6.30 |
| CC1c2nnc(-c3csc(N4CCOCC4)n3)n2CCN1C(=O)c1ccc(F)cc1 (stereo not drawn) [Compound 52, (4-fluorophenyl)(8-methyl-3-(2-morpholinothiazol-4-yl)-5,6-dihydro-[1,2,4]triazolo[4,3-a]pyrazin-7(8H)-yl)methanone] | > 6.30 |
| CC1c2nnc(-c3csc(N4CCOCC4)n3)n2CCN1C(=O)c1ccc(-c2ccc(F)cc2)cc1 (stereo not drawn) [Compound 53, (4′-fluoro-[1,1′-biphenyl]-4-yl)(8-methyl-3-(2-morpholinothiazol-4-yl)-5,6-dihydro-[1,2,4]triazolo[4,3-a]pyrazin-7(8H)-yl)methanone] | > 6.30 |
| CC1c2nnc(-c3csc(N4CCOCC4)n3)n2CCN1C(=O)c1ccc(-c2cccs2)cc1 (stereo not drawn) [Compound 56, (8-methyl-3-(2-morpholinothiazol-4-yl)-5,6-dihydro-[1,2,4]triazolo[4,3-a]pyrazin-7(8H)-yl)(4-(thiophen-2-yl)phenyl)methanone] | > 6.30 |
| O=C(c1ccc(F)cc1)N1CCn2c(nnc2-c2nc3ccccc3s2)C1 [Compound 59, (3-(benzo[d]thiazol-2-yl)-5,6-dihydro-[1,2,4]triazolo[4,3-a]pyrazin-7(8H)-yl)(4-fluorophenyl)methanone] | > 6.30 |
| CC1(C)c2nnc(-c3csc(-c4ccccc4)n3)n2CCN1C(=O)c1ccc(F)cc1 [Compound 60, (8,8-dimethyl-3-(2-phenylthiazol-4-yl)-5,6-dihydro-[1,2,4]triazolo[4,3-a]pyrazin-7(8H)-yl)(4-fluorophenyl)methanone] | > 6.30 |
| CC1c2nnc(-c3ccc4ccccc4n3)n2CCN1C(=O)c1ccc(F)cc1 (stereo not drawn) [Compound 61, (4-fluorophenyl)(8-methyl-3-(quinolin-2-yl)-5,6-dihydro-[1,2,4]triazolo[4,3-a]pyrazin-7(8H)-yl)methanone] | > 6.30 |
| CC1c2nnc(-c3ccc4ccccc4n3)n2CCN1C(=O)c1ccc(-c2cccs2)cc1 (stereo not drawn) [Compound 65, (8-methyl-3-(quinolin-2-yl)-5,6-dihydro-[1,2,4]triazolo[4,3-a]pyrazin-7(8H)-yl)(4-(thiophen-2-yl)phenyl)methanone] | > 6.30 |
| CC1c2nnc(-c3csc(-c4ccc(F)cc4)n3)n2CCN1C(=O)c1ccc(F)cc1 (stereo not drawn) [Compound 70, (4-fluorophenyl)(3-(2-(4-fluorophenyl)thiazol-4-yl)-8-methyl-5,6-dihydro-[1,2,4]triazolo[4,3-a]pyrazin-7(8H)-yl)methanone] | > 6.30 |
| Cc1nc(-c2ccccc2)sc1-c1nnc2n1CCN(C(=O)c1ccc(-c3ccccc3)cc1)C2C (stereo not drawn) [Compound 72, [1,1′-biphenyl]-4-yl(8-methyl-3-(4-methyl-2-phenylthiazol-5-yl)-5,6-dihydro-[1,2,4]triazolo[4,3-a]pyrazin-7(8H)-yl)methanone] | > 6.30 |
| Cc1nc(-c2ccccc2)sc1-c1nnc2n1CCN(C(=O)c1ccc(F)cc1)C2C (stereo not drawn) [Compound 75, (4-fluorophenyl)(8-methyl-3-(4-methyl-2-phenylthiazol-5-yl)-5,6-dihydro-[1,2,4]triazolo[4,3-a]pyrazin-7(8H)-yl)methanone] | 6.00 to 6.30 |

More lines, now with the values ahead:

| pKi | Structure (SMILES) |
| --- | --- |
| > 6.30 | O=C(c1ccc(F)cc1)N1CCn2c(nnc2-c2coc(-c3ccccc3)n2)C1 [Compound 47, (4-fluorophenyl)(3-(2-phenyloxazol-4-yl)-5,6-dihydro-[1,2,4]triazolo[4,3-a]pyrazin-7(8H)-yl)methanone] |
| > 6.30 | O=C(c1ccc(-c2ccccc2)cc1)N1CCn2c(nnc2-c2coc(-c3ccccc3)n2)C1 [Compound 50, [1,1′-biphenyl]-4-yl(3-(2-phenyloxazol-4-yl)-5,6-dihydro-[1,2,4]triazolo[4,3-a]pyrazin-7(8H)-yl)methanone] |
| > 6.30 | O=C(c1ccc(-c2cccs2)cc1)N1CCn2c(nnc2-c2csc(-c3ccccc3)n2)C1 [Compound 54, (3-(2-phenylthiazol-4-yl)-5,6-dihydro-[1,2,4]triazolo[4,3-a]pyrazin-7(8H)-yl)(4-(thiophen-2-yl)phenyl)methanone] |
| > 6.30 | O=C(c1ccc(-c2cccs2)cc1)N1CCn2c(nnc2-c2csc(N3CCOCC3)n2)C1 [Compound 55, (3-(2-morpholinothiazol-4-yl)-5,6-dihydro-[1,2,4]triazolo[4,3-a]pyrazin-7(8H)-yl)(4-(thiophen-2-yl)phenyl)methanone] |
| > 6.30 | O=C(c1ccc(F)cc1)N1CCn2c(nnc2-c2nc(-c3ccccc3)cs2)C1 [Compound 57, (4-fluorophenyl)(3-(4-phenylthiazol-2-yl)-5,6-dihydro-[1,2,4]triazolo[4,3-a]pyrazin-7(8H)-yl)methanone] |
| > 6.30 | CC1c2nnc(-c3csc(-c4ccccc4)n3)n2CCN1C(=O)c1ccc(-c2cccs2)cc1 (stereo not drawn) [Compound 62, (8-methyl-3-(2-phenylthiazol-4-yl)-5,6-dihydro-[1,2,4]triazolo[4,3-a]pyrazin-7(8H)-yl)(4-(thiophen-2-yl)phenyl)methanone] |
| > 6.30 | O=C(c1ccc(-c2ccsc2)cc1)N1CCn2c(nnc2-c2csc(-c3ccccc3)n2)C1 [Compound 63, (3-(2-phenylthiazol-4-yl)-5,6-dihydro-[1,2,4]triazolo[4,3-a]pyrazin-7(8H)-yl)(4-(thiophen-3-yl)phenyl)methanone] |
| > 6.30 | CC1c2nnc(-c3csc(-c4ccccc4)n3)n2CCN1C(=O)c1ccc(-c2ccsc2)cc1 (stereo not drawn) [Compound 64, (8-methyl-3-(2-phenylthiazol-4-yl)-5,6-dihydro-[1,2,4]triazolo[4,3-a]pyrazin-7(8H)-yl)(4-(thiophen-3-yl)phenyl)methanone] |
| > 6.30 | O=C(c1ccc(-c2cccs2)cc1)N1CCn2c(nnc2-c2ccc3ccccc3n2)C1 [Compound 69, (3-(quinolin-2-yl)-5,6-dihydro-[1,2,4]triazolo[4,3-a]pyrazin-7(8H)-yl)(4-(thiophen-2-yl)phenyl)methanone] |
| > 6.30 | O=C(c1ccc(-c2cccs2)cc1)N1CCn2c(nnc2-c2csc(-c3ccc(F)cc3)n2)C1 [Compound 73, (3-(2-(4-fluorophenyl)thiazol-4-yl)-5,6-dihydro-[1,2,4]triazolo[4,3-a]pyrazin-7(8H)-yl)(4-(thiophen-2-yl)phenyl)methanone] |
